Where two headings read alike, the source gives them in different places.
Experiment: Dog PK study #3 (Compound A PO once daily 5 days, 5/10/20 mg/kg; PK, body weight, hematology)
Format: in vivo, beagle dogs
Conditions: for Tmax / AUC(0-inf) / Cmax / MRT inf / MRT last / half-life / AUC(0-t): male, beagle, dog, plasma, po; for AUC(0-inf): read-out: AUC0-inf; for Cmax: read-out: Cmax; for MRT inf: read-out: MRT0-inf; for MRT last: read-out: MRT0-last; for half-life: read-out: T½ (converted)
Method: For the third dog pharmacokinetic study, three solutions of different concentrations of Compound A were prepared in 5% DMSO/15% PEG-400/80% (10% VE-TPGS) as outlined in Table 2E. The Compound A solutions were administered to animals orally (PO) once daily over a five-day period. Body weight was recorded prior to dosing, and detailed clinical observations were made prior to dosing and throughout the study, as needed.
Animals were divided into Day 1 and Day 5 sample collection groups, with animals in the Day 1 collection group having blood samples taken prior to dosing and at 0.25, 0.5, 1, 2, 4, 8, and 24 hours after dosing on day 1. Animals in the Day 5 collection group having blood samples taken prior to dosing and at 0.25, 0.5, 1, 2, 4, 8, and 24 hours after dosing on day 5. Study groups are outlined in Table 3D.
Blood samples (~0.3 mL) were collected on day according to the following schedule (0.25, 0.5, 1, 2, 4, 8, and 24 h) after day 5 administration of Compound A by venipuncture of peripheral veins except for the dosing vein, and EDTA-K2 was used as anticoagulant. Within 30 minutes of collection, the samples were centrifuged at approximately 2000 times g-force for 10 minutes at 4° C. to obtain blood plasma. The plasma samples were immediately divided into two aliquots (~75 μL each), transferred to a cryogenic vial, and stored in a freezer at −75±15° C. prior to analysis.
The concentration of Compound A in the blood plasma was determined through LC-MS as previously described. Briefly, the experiments were conducted on a DMPK-LCMS-14-SMBA Triple Quad 6500 Plus instrument with an ACQUITY UPLC BEH C18 1.7 μm (50×2.1 mm) column. The matrix was male beagle dog plasma potassium (K2) EDTA A gradient of 95% water (0.1% formic acid and 2 mM HCOONH4)/95% acetonitrile (0.1% formic acid and 2 mM HCOONH4) was used as the mobile phase. The sample flow rate was 0.6 mL/min.
The samples were then vortex-mixed for 10 minutes at 800 rpm and centrifuged for 15 minutes at 3220×g at 4° C. 50 μL aliquots of supernatant were transferred to a clean 96-well plate and centrifuged for 5 minutes at 3220×g at 4° C. Samples were then injected into the LC/MS/MS system for quantitative analysis.
The gathered data were used for pharmacokinetic calculations using T1/2, CO, AUClast, AUCinf, MRTinf, Cl, Vss, and Number of Points for Regression as parameters.
The cell composition (hematology) of blood samples was analyzed at day 5. Analyses identified the total number of white blood cells, neutrophils, lymphocytes, monocytes, eosinophils, basophils, and platelets in collected samples.

[1] = 5 mg/kg, Day 1, 5 mg/kg dose PO, individual animals
[2] = 5 mg/kg, Day 1, 5 mg/kg dose PO, mean
[3] = 5 mg/kg, Day 5, 5 mg/kg dose PO, individual animals
[4] = 5 mg/kg, Day 5, 5 mg/kg dose PO, mean
[5] = 10 mg/kg, Day 1, 10 mg/kg dose PO, individual animals
[6] = 10 mg/kg, Day 1, 10 mg/kg dose PO, mean
[7] = 10 mg/kg, Day 5, 10 mg/kg dose PO, individual animals
[8] = 10 mg/kg, Day 5, 10 mg/kg dose PO, mean
[9] = 20 mg/kg, Day 1, 20 mg/kg dose PO, individual animals
[10] = 20 mg/kg, Day 1, 20 mg/kg dose PO, mean
[11] = 20 mg/kg, Day 5, 20 mg/kg dose PO, individual animals
[12] = 20 mg/kg, Day 5, 20 mg/kg dose PO, mean
[13] = single PO administration Day 1, 10.0 over 5.00 mg/kg, dose ratio 2.00
[14] = single PO administration Day 1, 20.0 over 5.00 mg/kg, dose ratio 4.00
[15] = single PO administration Day 1, 20.0 over 10.0 mg/kg, dose ratio 2.00

Cn1cc(-c2ccccc2)c(-c2cn(C)c(=O)c3[nH]c(-c4cnn(C(F)(F)F)c4)cc23)cc1=O [Compound A, 6-methyl-4-(1-methyl-2-oxo-5-phenyl-1,2-dihydropyridin-4-yl)-2-(1-(trifluoromethyl)-1H-pyrazol-4-yl)-1,6-dihydro-7H-pyrrolo[2,3-c]pyridin-7-one]
Tmax [1]: 8 h | AUC(0-inf) [1]: 7.88 µg·h/mL | Cmax [1]: 785 ng/mL | MRT inf [1]: 9.3 h | MRT last [1]: 9.77 h | half-life [1]: 5.63 h | AUC(0-t) [2]: 9.5 µg·h/mL | Tmax [2]: 6 h | Cmax [2]: 736 ng/mL | MRT last [2]: 8.8 h | AUC(0-t) [3]: 17.8 µg·h/mL | Tmax [3]: 2 h | Cmax [3]: 1270 ng/mL | MRT inf [3]: 20 h | MRT last [3]: 9.78 h | AUC(0-t) [4]: 14.5 µg·h/mL | Tmax [4]: 2 h | AUC(0-inf) [4]: 18.9 µg·h/mL | Cmax [4]: 1160 ng/mL | MRT inf [4]: 15.1 h | MRT last [4]: 8.93 h | half-life [4]: 9.96 h | AUC(0-t) [5]: 19.5 µg·h/mL | Tmax [5]: 4 h | AUC(0-inf) [5]: 20.5 µg·h/mL | Cmax [5]: 2010 ng/mL | MRT inf [5]: 8.8 h | MRT last [5]: 7.59 h | half-life [5]: 5.24 h | AUC(0-t) [6]: 17.5 µg·h/mL | Tmax [6]: 3 h | AUC(0-inf) [6]: 18.6 µg·h/mL | Cmax [6]: 1730 ng/mL | MRT inf [6]: 9.17 h | MRT last [6]: 7.72 h | half-life [6]: 5.6 h | AUC(0-t) [7]: 20.5 µg·h/mL | Tmax [7]: 2 h | AUC(0-inf) [7]: 23 µg·h/mL | Cmax [7]: 1740 ng/mL | MRT inf [7]: 11.3 h | MRT last [7]: 8.5 h | half-life [7]: 7.3 h | AUC(0-t) [8]: 28.3 µg·h/mL | Tmax [8]: 2 h | AUC(0-inf) [8]: 34.1 µg·h/mL | Cmax [8]: 2260 ng/mL | MRT inf [8]: 13.4 h | MRT last [8]: 8.95 h | half-life [8]: 8.8 h | AUC(0-t) [9]: 49.4 µg·h/mL | Tmax [9]: 4 h | Cmax [9]: 4330 ng/mL | MRT inf [9]: 9.65 h | MRT last [9]: 8.19 h | AUC(0-t) [10]: 67.9 µg·h/mL | Tmax [10]: 4 h | AUC(0-inf) [10]: 84.7 µg·h/mL | Cmax [10]: 5160 ng/mL | MRT inf [10]: 13.9 h | MRT last [10]: 9.15 h | half-life [10]: 8.67 h | Tmax [11]: 2 h | Cmax [11]: 3510 ng/mL | AUC(0-t) [12]: 30.2 µg·h/mL | Tmax [12]: 2 h | AUC(0-inf) [12]: 1070 µg·h/mL | Cmax [12]: 2860 ng/mL | MRT inf [12]: 483 h | MRT last [12]: 6.3 h | half-life [12]: 334 h | mortality (one animal of the highest dose, 5 day PO study): found dead on day 6 | AUC0-last Ratio (dose proportionality) [13]: 1.85 | Cmax Ratio (dose proportionality) [13]: 2.35 | AUC0-last Ratio (dose proportionality) [14]: 7.15 | Cmax Ratio (dose proportionality) [14]: 7.02 | AUC0-last Ratio (dose proportionality) [15]: 3.87 | Cmax Ratio (dose proportionality) [15]: 2.99

From patent US20260217701A1, “SELECTIVE BET INHIBITORS AND USES THEREOF” (Tay Therapeutics Limited, priority 2022, published 2026)
